Some results are limits rather than exact numbers.

The IC50 is the point on the concentration scale where inhibition reaches its midpoint. A high value points to a need for much substance.

In the assay the target is Egl nine homolog 1 (Homo sapiens, UniProt Q9GZT9). The experiment in a line: Inhibition of human PHD2 catalytic domain (181-426) by FRET assay.
Sequence of Egl nine homolog 1 (Q9GZT9 whole entry, the tested form may be a part): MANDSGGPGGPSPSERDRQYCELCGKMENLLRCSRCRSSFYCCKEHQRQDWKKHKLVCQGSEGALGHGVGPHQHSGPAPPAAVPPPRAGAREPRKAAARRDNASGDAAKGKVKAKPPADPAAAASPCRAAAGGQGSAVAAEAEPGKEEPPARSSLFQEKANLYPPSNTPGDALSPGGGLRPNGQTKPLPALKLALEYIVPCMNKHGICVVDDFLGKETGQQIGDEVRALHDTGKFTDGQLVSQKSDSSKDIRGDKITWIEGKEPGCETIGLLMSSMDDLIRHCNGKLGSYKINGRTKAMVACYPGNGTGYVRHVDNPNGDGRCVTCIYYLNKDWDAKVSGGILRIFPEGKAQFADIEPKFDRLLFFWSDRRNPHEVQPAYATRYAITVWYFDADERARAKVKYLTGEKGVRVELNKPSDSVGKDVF
The compound `O=C(O)CCC(=O)NO` came in with a concentration for half-maximal inhibition (IC50) of 94 µM.

`CCOC(=O)C(=O)NCC(=O)O` had an IC50 of 78 µM.

Regarding `CCNC(=O)C(=O)NCC(=O)O`, the IC50 is more than 1000 µM.

On to `O=C(O)CN1CCNC(=O)C1=O`, for which the IC50 is more than 1000 µM.

The compound `O=C(O)CNC(=O)CC(=O)O` returned an IC50 of 398 µM.

`CC(=O)CC(=O)NCC(=O)O`: the concentration for half-maximal inhibition (IC50) is more than 1000 µM.

In turn, `CCOC(=O)CC(=O)NCC(=O)O` showed an IC50 of more than 1000 µM.

`O=C(O)CNC(=O)C(=O)C(=O)c1ccccc1`: the IC50 was 538 µM.

`COC(=O)CNC(=O)C(=O)O` registered an IC50 of more than 1000 µM.

In turn, `O=C(O)CNC(=O)NO` yielded an IC50 of more than 1000 µM.

In turn, `O=C(O)CNC(=O)C(=O)NCc1ccccc1` yielded an IC50 of more than 1000 µM.

For `CCNC(=O)C(=O)CCC(=O)O`, the IC50 was more than 1000 µM.

On to `O=C(O)CNC(=O)CC(=O)c1ccccc1`, for which the IC50 was more than 1000 µM.

Take `COC(=O)C(=O)NCC(=O)O`: the IC50 came to 95 µM. That is a double-digit micromolar value.

`CC(=O)CC(=O)CCC(=O)O` [SUCCINYLACETONE] gave an IC50 of 18 µM.

Values taken from ChEMBL document CHEMBL1154170, “2-Oxoglutarate analogue inhibitors of prolyl hydroxylase domain 2” (Bioorg Med Chem Lett, 2009).
